Key:
[1] = biological target: T1, A1 receptor (Homo sapiens, UniProt P30542); assay: Human adenosine A1 receptor competition binding assay (for selectivity); conditions: A1/A2a Ki ratio
T1 sequence (P30542 1-326): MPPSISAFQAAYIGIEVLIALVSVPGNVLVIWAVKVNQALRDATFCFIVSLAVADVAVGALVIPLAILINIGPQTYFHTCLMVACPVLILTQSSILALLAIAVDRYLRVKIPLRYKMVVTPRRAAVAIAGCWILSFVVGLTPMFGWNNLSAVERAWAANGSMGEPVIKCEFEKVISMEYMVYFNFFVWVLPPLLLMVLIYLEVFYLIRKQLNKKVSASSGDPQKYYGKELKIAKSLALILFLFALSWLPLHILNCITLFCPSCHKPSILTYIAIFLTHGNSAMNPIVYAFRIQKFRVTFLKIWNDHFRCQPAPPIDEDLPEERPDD
Protocol: (§1) Human Adenosine A2a and A1 Receitor Competition Binding Assay Protocol Membrane Sources:
(§2) Membrane dilution buffer: Dulbecco's Phosphate Buffered Saline (Gibco/BRL)+10 mM MgCl2.
(§3) Compound Dilution Buffer: Dulbecco's Phosphate Buffered Saline (Gibco/BRL)+10 mM MgCl2 supplemented with 1.6 mg/ml methyl cellulose and 16% DMSO. Prepared fresh daily.
A1: [3H]-DPCPX, Amersham Pharmacia Biotech, Piscataway, N.J. Stock is prepared at 2 nM in membrane dilution buffer. Final assay concentration is 1 nM.
A1: To determine non-specific binding, add 100 μM NECA (RBI, Natick, Mass.). Working stock is prepared at 400 μM in compound dilution buffer.
(§4) Prepare 1 mM stock solutions of compounds in 100% DMSO. Dilute in compound dilution buffer. Test at 10 concentrations ranging from 3 μM to 30 pM. Prepare working solutions at 4× final concentration in compound dilution buffer.
(§5) Perform assays in deep well 96 well plates. Total assay volume is 200 μl. Add 50 μl compound dilution buffer (total ligand binding) or 50 μl CGS 15923 working solution (A2a non-specific binding) or 50 μl NECA working solution (A1 non-specific binding) or 50 μl of drug working solution. Add 50 μl ligand stock ([3H]-SCH 58261 for A2a, [3H]-DPCPX for A1). Add 100 μl of diluted membranes containing the appropriate receptor. Mix. Incubate at room temperature for 90 minutes. […]
Selectivity is determined by dividing Ki for A1 receptor by Ki for A2a receptor. […]

[2] = biological target: T2, Human A2a Adenosine Receptor (Homo sapiens, UniProt P29274); assay: Human adenosine A2a receptor competition binding assay; conditions: [3H]-SCH 58261 displacement, human A2a membranes
T2 construct: purchased Receptor Biology, Inc., Beltsville, Md; RB-HA2a
T2 sequence (P29274 whole entry): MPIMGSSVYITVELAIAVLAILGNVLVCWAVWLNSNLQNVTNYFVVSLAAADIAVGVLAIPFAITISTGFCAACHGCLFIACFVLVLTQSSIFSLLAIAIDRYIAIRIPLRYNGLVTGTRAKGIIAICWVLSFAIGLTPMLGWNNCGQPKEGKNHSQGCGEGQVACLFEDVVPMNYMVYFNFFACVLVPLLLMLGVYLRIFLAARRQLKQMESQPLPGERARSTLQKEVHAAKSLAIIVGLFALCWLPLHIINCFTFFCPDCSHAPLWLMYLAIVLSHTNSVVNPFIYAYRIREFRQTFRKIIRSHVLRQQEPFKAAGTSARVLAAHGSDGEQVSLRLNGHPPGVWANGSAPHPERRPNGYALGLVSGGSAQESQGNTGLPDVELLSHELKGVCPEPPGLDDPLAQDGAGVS
Protocol: as §1
A2a: Human A2a Adenosine Receptor membranes, Catalog #RB-HA2a, Receptor Biology, Inc., Beltsville, Md. Dilute to 17 μg/100 μl in membrane dilution buffer (see below).
as §2, §3
A2a: [3H]-SCH 58261, custom synthesis, AmershamPharmacia Biotech, Piscataway, N.J. Stock is prepared at 1 nM in membrane dilution buffer. Final assay concentration is 0.5 nM.
A2a: To determine non-specific binding, add 100 nM CGS 15923 (RBI, Natick, Mass.). Working stock is prepared at 400 nM in compound dilution buffer.
as §4
as §5, with “A1).” for “A1). Add 100 μl of diluted membranes containing the appropriate receptor. Mix. Incubate at room temperature for 90 minutes.”

Row | SMILES | selectivity (Ki for A1 receptor divided by Ki for A2a receptor) [1] | Ki [2]
1 | Cc1nccnc1-c1nc2c3cnn(CCN4CCN(c5cc(-c6ncco6)ccc5F)CC4)c3nc(N)n2n1 [Example 2-28] | above 9000 | 
2 | Cc1nc(-c2ccc(F)c(N3CCN(CCn4ncc5c4nc(N)n4nc(-c6cnccn6)nc54)CC3)c2)co1 [Example 1] |  | 0.2 nM

Reference: patent US7465740B2, “2-heteroaryl-pyrazolo-[4,3-e]-1,2,4-triazolo-[1,5-c]-pyrimidine adenosine A2a receptor antagonists” (Schering Corporation, priority 2005, dated 2008)
